Measured values published in patent US20060160818A1, “Ocular hypotensive agent” (priority 2003, published 2006).
Counter-ions that a name gives are not always drawn.

System: ocular tension
Assay: Ocular tension-reducing activity by administration to anterior chamber
Type: in vivo, rabbit
Conditions: overall conclusion from Examples 1 to 4
Experimental: Test solutions 1 to 3 were prepared as mentioned below. […] Non-white 5 male rabbits were used. Ocular tension was measured under topically anesthetizing the corneal surface with 0.4% oxybuprocaine hydrochloride by using an air impression electronic tonometer (by Japan Alcon Company). The rabbit was fitted in a cylinder, after topically anesthetizing the corneal surface with 0.4% oxybuprocaine hydrochloride, and the test solution 10 μl was injected via cornea in anterior chamber of one eye with an injection needle (30G). To the other eye as a control eye, in the same way as mentioned above, a physiological saline was injected. Ocular tension just before and after injection of the test solution or the physiological saline was measured in accordance with the same method as mentioned above. […] Ocular tension just before and after injection of the test solution and the physiological saline was measured in accordance with the same method as mentioned in Example 1.

Row | SMILES | ocular tension-reducing activity (summary in words)
1 | O=C(O)CC(O)(CC(=O)O)C(=O)O.O=C1[C@@H]2[C@@H]3CC[C@@H](C3)[C@@H]2C(=O)N1CCCCN1CCN(c2ncccn2)CC1 [tandospirone citrate] | have ocular tension-reducing activity
2 | O=C1[C@H]2CCCC[C@H]2C(=O)N1CCCCN1CCN(c2nsc3ccccc23)CC1 [perospirone hydrochloride hydrate] | have ocular tension-reducing activity
